Experimental data: patent US20040038855A1 (priority 1999, published 2004)
Structures can show the parent of a compound that is named as a salt. Where two headings read alike, the source gives them in different places.

Tests used:
human α2A adrenoceptor = molecular target: T1, human α2A adrenoceptor (Homo sapiens, UniProt P08913); test: Binding affinity at the human α2A adrenergic receptor
T1 construct: expressed in transfected cells
T1 sequence (P08913 1-465): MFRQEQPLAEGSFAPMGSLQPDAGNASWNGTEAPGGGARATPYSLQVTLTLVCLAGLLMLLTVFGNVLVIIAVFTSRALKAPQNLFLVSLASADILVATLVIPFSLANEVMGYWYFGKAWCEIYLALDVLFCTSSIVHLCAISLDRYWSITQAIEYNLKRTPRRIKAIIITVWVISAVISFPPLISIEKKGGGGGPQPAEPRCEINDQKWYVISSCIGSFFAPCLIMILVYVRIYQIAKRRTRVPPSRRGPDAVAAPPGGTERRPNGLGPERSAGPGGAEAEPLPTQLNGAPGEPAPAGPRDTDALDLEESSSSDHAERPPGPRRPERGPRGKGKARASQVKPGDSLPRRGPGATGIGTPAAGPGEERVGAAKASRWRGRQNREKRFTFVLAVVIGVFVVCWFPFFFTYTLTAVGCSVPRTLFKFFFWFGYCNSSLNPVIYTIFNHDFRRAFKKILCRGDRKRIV
Description: (§1) Other receptors: Cell membranes expressing human dopamine D1, D2, D4 and rat D3 receptors were purchased through BioSignal, Inc. (Montreal, Canada). Binding assays using the histamine H1 receptor; dopamine receptors; and α1A, α1B, and α2 adrenergic receptors may be carried out according to the procedures described in U.S. Pat. No. 5,780,485, the disclosure of which is hereby incorporated by reference in its entirety into this application. Binding assays using the dopamine D5 receptor may be carried out according to the procedures described in U.S. Pat. No. 5,882,855, the disclosure of which is hereby incorporated by reference in its entirety into this application. Binding assays for the human α1D adrenergic receptor may be carried out according to the procedures described in U.S. Pat. No. 6,156,518, the disclosure of which is hereby incorporated by reference in its entirety into this application.

human α1B adrenoceptor = molecular target: T2, human α1B adrenoceptor (Homo sapiens, UniProt P35368); test: Binding affinity at the human α1B adrenergic receptor; conditions: Table 3d; read-out: hα1B Ki
T2 construct: expressed in transfected cells
T2 sequence (P35368 1-520): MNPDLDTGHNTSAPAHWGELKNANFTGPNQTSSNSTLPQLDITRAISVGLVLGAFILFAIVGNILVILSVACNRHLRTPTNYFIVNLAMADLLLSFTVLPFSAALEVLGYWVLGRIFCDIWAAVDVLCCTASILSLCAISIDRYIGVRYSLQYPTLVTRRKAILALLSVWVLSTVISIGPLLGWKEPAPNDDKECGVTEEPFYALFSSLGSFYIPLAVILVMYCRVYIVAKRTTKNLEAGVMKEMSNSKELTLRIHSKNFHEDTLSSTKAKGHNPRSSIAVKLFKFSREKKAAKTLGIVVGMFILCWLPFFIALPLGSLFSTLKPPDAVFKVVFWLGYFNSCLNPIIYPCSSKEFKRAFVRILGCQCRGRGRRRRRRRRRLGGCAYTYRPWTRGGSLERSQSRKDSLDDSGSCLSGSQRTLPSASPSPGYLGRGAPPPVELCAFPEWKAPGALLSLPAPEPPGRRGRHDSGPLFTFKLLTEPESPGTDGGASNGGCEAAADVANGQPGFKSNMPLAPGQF
Description: as §1

[1] = molecular target: T3, human Dopamine D2 receptor (Homo sapiens, UniProt P14416); test: Binding affinity at the human dopamine D2 receptor; conditions: Table 3d; * = >50000; read-out: hD2 Ki
T3 construct: purchased BioSignal, Inc. (Montreal, Canada)
T3 sequence (P14416 whole entry): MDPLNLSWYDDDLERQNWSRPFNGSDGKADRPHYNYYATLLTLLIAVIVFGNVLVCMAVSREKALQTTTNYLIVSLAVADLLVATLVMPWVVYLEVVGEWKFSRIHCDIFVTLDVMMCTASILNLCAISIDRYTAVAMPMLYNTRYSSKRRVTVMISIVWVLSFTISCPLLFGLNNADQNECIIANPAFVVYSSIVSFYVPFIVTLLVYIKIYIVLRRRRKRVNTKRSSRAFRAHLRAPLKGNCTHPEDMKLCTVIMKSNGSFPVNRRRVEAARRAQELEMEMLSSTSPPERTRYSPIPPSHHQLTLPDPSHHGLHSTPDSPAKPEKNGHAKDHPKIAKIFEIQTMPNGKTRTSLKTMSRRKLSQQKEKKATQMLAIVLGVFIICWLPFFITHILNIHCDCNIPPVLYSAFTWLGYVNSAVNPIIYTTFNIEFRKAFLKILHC
Method in brief: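 D5 receptor binding is run per one prior patent's protocol, while dopamine and α2 adrenergic binding follow another; human D1 and D2 receptors were supplied as expressing cell membranes.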

[2] = molecular target: T4, human dopamine D1 receptor (Homo sapiens, UniProt P21728); test: Binding affinity at the human dopamine D1 receptor; conditions: Table 3d; read-out: hD1 Ki
T4 construct: purchased BioSignal, Inc. (Montreal, Canada)
T4 sequence (P21728 whole entry): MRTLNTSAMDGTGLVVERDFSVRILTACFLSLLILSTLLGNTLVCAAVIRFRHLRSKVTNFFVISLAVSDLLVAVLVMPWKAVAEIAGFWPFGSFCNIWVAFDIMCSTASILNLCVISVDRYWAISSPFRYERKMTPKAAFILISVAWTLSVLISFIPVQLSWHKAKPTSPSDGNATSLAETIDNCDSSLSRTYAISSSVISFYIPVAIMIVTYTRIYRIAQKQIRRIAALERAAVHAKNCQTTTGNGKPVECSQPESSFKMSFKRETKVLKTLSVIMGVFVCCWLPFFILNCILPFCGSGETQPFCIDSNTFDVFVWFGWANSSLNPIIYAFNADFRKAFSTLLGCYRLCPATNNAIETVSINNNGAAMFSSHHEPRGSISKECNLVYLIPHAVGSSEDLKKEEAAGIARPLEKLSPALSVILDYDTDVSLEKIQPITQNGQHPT
Description: as §1

human 5HT2A receptor = molecular target: T5, human 5HT2A receptor (Homo sapiens, UniProt P28223); test: Binding affinity at the human 5HT2A receptor ([3H]ketanserin); conditions: Table 3e; read-out: h5HT2A Ki
T5 construct: expressed in transfected cells; host or cells: COS7 cells, transient, DEAE dextran, vector pCEXV3
T5 sequence (P28223 whole entry): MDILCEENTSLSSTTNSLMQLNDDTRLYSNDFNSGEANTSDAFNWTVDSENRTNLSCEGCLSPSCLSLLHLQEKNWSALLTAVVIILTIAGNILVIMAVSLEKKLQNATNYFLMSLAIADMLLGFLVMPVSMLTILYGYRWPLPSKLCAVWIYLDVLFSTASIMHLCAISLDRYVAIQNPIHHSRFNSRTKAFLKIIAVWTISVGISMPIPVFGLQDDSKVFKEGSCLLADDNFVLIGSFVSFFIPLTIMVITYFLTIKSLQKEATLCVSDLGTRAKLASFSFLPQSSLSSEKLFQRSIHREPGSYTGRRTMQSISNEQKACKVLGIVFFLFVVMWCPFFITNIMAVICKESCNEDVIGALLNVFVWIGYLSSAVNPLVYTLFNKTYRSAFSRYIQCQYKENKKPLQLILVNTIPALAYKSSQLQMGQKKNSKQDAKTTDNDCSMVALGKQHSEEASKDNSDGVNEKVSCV
Protocol: Human 5HT2A Receptor: The coding sequence of the human 5HT2A receptor was obtained from a human brain cortex cDNA library, and cloned into the cloning site of pCEXV3 eukaryotic expression vector. This construct was transfected into COS7 cells by the DEAE dextran method (Cullen, 1987). Cells were harvested after 72 hours and lysed by sonication in 5 mM Tris HCl, 5 mM EDTA, pH 7.5. The cell lysates were subjected to centrifugation at 1000 rpm for 5 minutes at 4° C., and the supernatant was subjected to centrifugation at 30,000×g for 20 minutes at 4° C. The pellet was suspended in 50 mM Tris HCl buffer (pH 7.7 at room temperature) containing 10 mM MgSO4, 0.5 mM EDTA, and 0.1% ascorbate. […] Nonspecific binding was defined by the addition of 10 μM mianserin. The bound radioligand was separated by filtration through GF/B filters using a cell harvester.

rat D3 receptor = rat D3 receptor (Rattus norvegicus, UniProt P19020); test: Binding affinity at the rat dopamine D3 receptor; conditions: Table 3d; read-out: rD3 Ki
Chain of rat D3 receptor (P19020 whole entry): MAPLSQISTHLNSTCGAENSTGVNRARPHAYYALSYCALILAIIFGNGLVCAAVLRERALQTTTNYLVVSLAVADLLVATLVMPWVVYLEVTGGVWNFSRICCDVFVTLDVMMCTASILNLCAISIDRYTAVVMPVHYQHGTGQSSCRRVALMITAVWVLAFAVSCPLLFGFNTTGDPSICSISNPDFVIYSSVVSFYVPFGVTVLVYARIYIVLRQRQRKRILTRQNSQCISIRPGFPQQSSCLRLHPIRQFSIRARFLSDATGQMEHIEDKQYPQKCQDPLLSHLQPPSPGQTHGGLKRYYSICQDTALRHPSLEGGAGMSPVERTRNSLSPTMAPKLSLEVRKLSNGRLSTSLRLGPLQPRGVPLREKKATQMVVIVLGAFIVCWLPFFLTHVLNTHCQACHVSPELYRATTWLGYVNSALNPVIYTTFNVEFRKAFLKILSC
Description: as §1

[3] = molecular target: T6, human dopamine D5 receptor (Homo sapiens, UniProt P21918); test: Binding affinity at the human dopamine D5 receptor; conditions: Table 3d; read-out: hD5 Ki
T6 construct: expressed in transfected cells
T6 sequence (P21918 whole entry): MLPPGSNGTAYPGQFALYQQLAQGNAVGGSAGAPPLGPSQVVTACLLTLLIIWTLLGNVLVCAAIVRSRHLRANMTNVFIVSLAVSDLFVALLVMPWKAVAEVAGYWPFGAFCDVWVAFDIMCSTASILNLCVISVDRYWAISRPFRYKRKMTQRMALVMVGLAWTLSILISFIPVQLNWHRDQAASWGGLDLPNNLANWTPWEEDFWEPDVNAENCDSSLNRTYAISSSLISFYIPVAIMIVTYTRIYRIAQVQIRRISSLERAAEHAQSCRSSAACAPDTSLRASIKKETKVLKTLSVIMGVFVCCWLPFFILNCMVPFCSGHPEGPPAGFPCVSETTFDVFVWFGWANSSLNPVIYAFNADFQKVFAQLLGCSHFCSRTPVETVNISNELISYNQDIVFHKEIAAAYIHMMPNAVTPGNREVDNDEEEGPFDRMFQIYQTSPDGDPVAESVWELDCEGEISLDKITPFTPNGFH
Description: as §1

[4] = molecular target: T7, human H2 histamine receptor (Homo sapiens, UniProt P25021); test: Binding affinity at the human histamine H2 receptor
T7 construct: expressed in transfected cells
T7 sequence (P25021 whole entry): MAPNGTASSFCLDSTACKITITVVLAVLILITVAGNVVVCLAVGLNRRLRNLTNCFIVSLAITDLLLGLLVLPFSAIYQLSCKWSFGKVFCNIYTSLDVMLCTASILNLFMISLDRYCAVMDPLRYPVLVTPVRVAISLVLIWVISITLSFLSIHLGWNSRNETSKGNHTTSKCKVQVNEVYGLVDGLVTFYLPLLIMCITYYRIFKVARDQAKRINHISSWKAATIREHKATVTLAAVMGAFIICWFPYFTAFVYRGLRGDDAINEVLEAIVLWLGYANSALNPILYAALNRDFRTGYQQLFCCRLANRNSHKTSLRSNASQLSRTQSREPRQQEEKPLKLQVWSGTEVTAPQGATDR
Description: Binding studies for the β-adrenoceptor may be performed according to the method of Riva and Creese, 1989. Binding assays for the remainder of the receptors may be carried out according to the procedures described in U.S. Pat. No. 5,780,485, the disclosure of which is hereby incorporated by reference in its entirety into this application.

Compound	Ki (human α2A adrenoceptor; Table 3d, read-out: hα2A Ki) [nM]	Ki (human α1B adrenoceptor) [nM]	Ki (human α2A adrenoceptor) [nM]	Ki [1] [nM]	Ki [2] [nM]	Ki (human 5HT2A receptor) [nM]	Ki (rat D3 receptor) [nM]	Ki [3] [nM]	Ki [4] [nM]	Ki ([4]; Table 3e, * = >50000, read-out: hH2 Ki) [nM]
2-(3,4-DIFLUOROPHENYL)4,5-DIHYDROIMIDAZOLE-1-CARBOXYLIC ACID {3-[4-PHENYL-4-(4-BROMO-5-METHYLTHIOPNEN-2-YL)]-PROPYL}-AMIDE [Example 19]	285	104								
COC(=O)C1=C(C)NC(=O)N(C(=O)NCCCN2CCC3(CC2)OCc2ccccc23)C1c1ccc2nonc2c1 (single isomer, unassigned) [Example 18, HYDROCHLORIDE]		418	57	624	596	1570	1220	2540	944	
COCC1=C(C(=O)OC)C(c2ccc(F)c(F)c2)N(C(=O)NCCCN2CCC(c3cccc(NC(C)=O)c3)CC2)C(=O)N1 (single isomer, unassigned; (-)) [Example 1, (−)-1,2,3,6-TETRAHYDRO-1-{N-[4-(3,-ACETAMIDO)-PHENYLPIPERIDIN-1-YL]PROPYL}CARBOXAMIDO-4-METHOXYMETHYL-6-(3,4-DIFLUORO-PHENYL)-2-OXOPYRIMIDINE-5-CARBOXYLIC ACID METHYL ESTER]		9030								
COCC1=C(C(=O)OC)[C@H](c2ccc(F)c(F)c2)N(C(=O)NCCCN2CCC(c3cccc(NC(C)=O)c3)CC2)C(=O)N1 [Example 10, (+)-1,2,3,6-TETRAHYDRO-1-{N-[4-(3,-ACETAMIDO)-PHENYLPIPERIDIN-1-YL]PROPYL}CARBOXAMIDO-4-METHOXYMETHYL-6-(3,4-DIFLUORO-PHENYL)-2-OXOPYRIMIDINE-5-CARBOXYLIC ACID METHYL ESTER]		11300		> 50000	1930		5890	773		> 50000
COC(=O)C1=C(C)NC(=O)N(C(=O)NCCCN2CCC3(CC2)OCc2ccccc23)C1c1ccc(F)c(F)c1 (stereo not drawn) [Example 20, 4-(3,4-DIFLUORPHENYL)-6-METHYL-2-OXO-3-{[3-(4-SPIRO[ISOBENZOFURAN-1(3H),4′-PIPERIDINE]PROPYL}-1,2,3,4-TETRAHYDROPYRIMIDINE-5-CARBOXYLIC ACID METHYL ESTER]		407	99			2820			1910	
